The results in this text go back to ChEMBL document CHEMBL4396865, “Current advances of triazole alcohols derived from fluconazole: Design, in vitro and in silico studies” (2019).

≈ marks a conversion by molar mass, not a printed value.

Common to all, as to type: functional
The subject of test [1] is Trichophyton rubrum. As to the kind of experiment: Antifungal activity against Trichophyton rubrum after 24 hrs by microbroth dilution method.
The subject of test [2] is Aspergillus fumigatus. As to the kind of experiment: Antifungal activity against Aspergillus fumigatus after 24 hrs by microbroth dilution method.
Test [3] has as its system Microsporum canis. As to the kind of experiment: Antifungal activity against Microsporum canis after 24 hrs by microbroth dilution method.
Test [4] has as its system Cryptococcus neoformans. Put plainly: Potency index, ratio of fluconazole MIC to test compound MIC for activity against Cryptococcus neoformans ATCC 32609.
Test [5] deals with Fonsecaea compacta. As to the kind of experiment: Antifungal activity against Fonsecaea compacta after 24 hrs by microbroth dilution method.
Test [6] has as its system Aspergillus fumigatus. Put plainly: Potency index, ratio of fluconazole MIC to test compound MIC for Aspergillus fumigatus.
Test [7] deals with Microsporum canis. As to the kind of experiment: Potency index, ratio of fluconazole MIC to test compound MIC for Microsporum canis.
For test [8], the system named is Trichophyton rubrum. Put plainly: Potency index, ratio of fluconazole MIC to test compound MIC for Trichophyton rubrum.
The subject of test [9] is Fonsecaea compacta. Put plainly: Potency index, ratio of fluconazole MIC to test compound MIC for Fonsecaea compacta.
Test [10] concerns Candida albicans. As to the kind of experiment: Potency index, ratio of fluconazole MIC to test compound MIC for Candida albicans ATCC 76615.
The test system of test [11] is Candida tropicalis. Put plainly: Antifungal activity against Candida tropicalis after 24 hrs by microbroth dilution method.
Test [12] has as its system Candida tropicalis. As to the kind of experiment: Potency index, ratio of fluconazole MIC to test compound MIC for Candida tropicalis.
Test [13] relates to Pichia kudriavzevii. Put plainly: Antifungal activity against Candida krusei CK506.
In the next test the test system is Nakaseomyces glabratus. Put plainly: Antifungal activity against Candida glabrata CG468.
The subject of test [14] is Candida albicans. As to the kind of experiment: Antifungal activity against Candida albicans CAAL-74.
Test [15] deals with Pichia kudriavzevii. As to the kind of experiment: Antifungal activity against Candida krusei CK8.
Test [16] concerns Aspergillus fumigatus. As to the kind of experiment: Antifungal activity against Aspergillus fumigatus AF98003.
For test [17], the system named is Candida albicans. Put plainly: Antifungal activity against Candida albicans CA98001.
Test [18] relates to Candida parapsilosis. Put plainly: Antifungal activity against Candida parapsilosis CAPA1.
The subject of test [19] is Candida albicans. Put plainly: Antifungal activity against Candida albicans DSY735.
For test [20], the system named is Candida parapsilosis. Put plainly: Antifungal activity against Candida parapsilosis CAPA2.
Test [21] relates to Candida parapsilosis. As to the kind of experiment: Antifungal activity against Candida parapsilosis. To be noted: Lodderomyces parapsilosis.
For test [22], the system named is Candida albicans. Put plainly: Antifungal activity against Candida albicans. To be noted: Candida albicans.
The test system of test [23] is Pichia kudriavzevii. As to the kind of experiment: Antifungal activity against Candida krusei.
For test [24], the system named is Cryptococcus neoformans. As to the kind of experiment: Antifungal activity against Cryptococcus neoformans. As to conditions: Cryptococcus neoformans.
Test [25] deals with Candida tropicalis. Put plainly: Antifungal activity against Candida tropicalis. As to conditions: Candida tropicalis.
The test system of test [26] is Candida parapsilosis. Put plainly: Antifungal activity against fluconalzole-susceptible Candida parapsilosis after 24 hrs. To be noted: Lodderomyces parapsilosis.
Test [27] relates to Candida albicans. Put plainly: Antifungal activity against fluconalzole-susceptible Candida albicans after 24 hrs.
The subject of test [28] is Aspergillus fumigatus. Put plainly: Antifungal activity against Aspergillus fumigatus. To be noted: Aspergillus fumigatus; read-out: MIC.

Take `CC(C)(C)c1ccc(CN(CC(O)(Cn2cncn2)c2ccc(F)cc2F)C2CC2)cc1` (configuration not stated): the MIC80 in the test with Trichophyton rubrum [1], with Aspergillus fumigatus [2], against Microsporum canis [3], in the test on Fonsecaea compacta [5] and against Candida tropicalis [11] was 0.125 µg/mL (≈ 0.284 µM) each time. For the same compound, the Ratio in the test on Cryptococcus neoformans [4], in the test on Aspergillus fumigatus [6], in the test on Microsporum canis [7], in the test on Trichophyton rubrum [8], in the test with Fonsecaea compacta [9] and in the test on Candida albicans [10] was 4 in each case. Moreover, the Ratio with Candida tropicalis [12] is given as 4.
As for `OC(CN(Cc1ccc(Cl)cc1)C1CC1)(Cn1cncn1)c1ccc(F)cc1F` (configuration not stated), the MIC80 against Trichophyton rubrum [1], against Aspergillus fumigatus [2], against Microsporum canis [3], against Fonsecaea compacta [5] and against Candida tropicalis [11] was 0.125 µg/mL (≈ 0.298 µM) each time. Moreover, the Ratio in the test with Cryptococcus neoformans [4], in the test with Aspergillus fumigatus [6], with Microsporum canis [7], in the test on Trichophyton rubrum [8], in the test with Fonsecaea compacta [9] and in the test with Candida albicans [10] was 4 throughout. Also, the Ratio in the test with Candida tropicalis [12] was 4.
`CN(Cc1ccc(-c2ccc(C#N)cc2)cc1)CC(O)(Cn1cncn1)c1ccc(F)cc1F` (configuration not stated): the MIC is 0.001 to 1.32 µg/mL with Pichia kudriavzevii [13]; 0.001 to 1.32 µg/mL against Nakaseomyces glabratus; 0.001 to 1.32 µg/mL with Candida albicans [14]; 0.001 to 1.32 µg/mL against Pichia kudriavzevii [15]; 2.76 µg/mL (≈ 6.01 µM) against Aspergillus fumigatus [16]; 0.001 to 1.32 µg/mL in the test on Candida albicans [17]. Further, the MIC in the test on Candida parapsilosis [18], in the test on Candida albicans [19] and against Candida parapsilosis [20] was 0.001 to 1.32 µg/mL each time.
As to `OC(CN(Cc1ccccc1F)C1CC1)(Cn1cncn1)c1ccc(F)cc1F` (configuration not stated), the MIC80 in the test on Trichophyton rubrum [1], against Aspergillus fumigatus [2], in the test on Microsporum canis [3], against Fonsecaea compacta [5] and against Candida tropicalis [11] was 0.125 µg/mL (≈ 0.311 µM) each time. Moreover, the Ratio in the test on Cryptococcus neoformans [4], in the test with Aspergillus fumigatus [6], with Microsporum canis [7], in the test on Trichophyton rubrum [8], in the test with Fonsecaea compacta [9] and with Candida albicans [10] was 4 each time. Further, the Ratio with Candida tropicalis [12] is given as 4.
`COc1cccc(NC(=O)CN(C)CC(O)(Cn2cncn2)c2ccc(F)cc2F)c1` (configuration not stated): the MIC80 against Candida parapsilosis [21] was 0.25 to 1 µg/mL (≈ 0.579 to 2.32 µM); in the test on Candida albicans [22] it was 0.0156 µg/mL (≈ 0.0362 µM); against Pichia kudriavzevii [23], 0.25 to 1 µg/mL (≈ 0.579 to 2.32 µM); with Cryptococcus neoformans [24], 0.0156 µg/mL (≈ 0.0362 µM); against Candida tropicalis [25], 0.25 to 1 µg/mL (≈ 0.579 to 2.32 µM).
For the compound `OC(CN(Cc1ccccc1)C1CC1)(Cn1cncn1)c1ccc(F)cc1F` (configuration not stated), the MIC80 against Trichophyton rubrum [1], in the test with Aspergillus fumigatus [2], against Microsporum canis [3], in the test with Fonsecaea compacta [5] and with Candida tropicalis [11] was 0.125 µg/mL (≈ 0.325 µM) throughout. The Ratio in the test on Cryptococcus neoformans [4], in the test with Aspergillus fumigatus [6], with Microsporum canis [7], in the test with Trichophyton rubrum [8], with Fonsecaea compacta [9] and in the test with Candida albicans [10] was 4 each time. Also, the Ratio with Candida tropicalis [12] turned out to be 4.
With `OC(Cn1cncn1)(Cn1cnc(SCc2ccc(Cl)cc2Cl)n1)c1ccc(F)cc1F` (configuration not stated), the MIC in the test on Candida parapsilosis [26] and against Candida albicans [27] was 0.063 to 1 µg/mL (≈ 0.127 to 2.01 µM) each time.
`OC(CN(Cc1ccccc1Cl)C1CC1)(Cn1cncn1)c1ccc(F)cc1F` (configuration not stated): the MIC80 in the test with Trichophyton rubrum [1], against Aspergillus fumigatus [2], with Microsporum canis [3], in the test on Fonsecaea compacta [5] and in the test with Candida tropicalis [11] was 0.125 µg/mL (≈ 0.298 µM) each time. The Ratio in the test on Cryptococcus neoformans [4], in the test on Aspergillus fumigatus [6], with Microsporum canis [7], in the test on Trichophyton rubrum [8], with Fonsecaea compacta [9] and in the test with Candida albicans [10] was 4 throughout. The Ratio in the test on Candida tropicalis [12] turned out to be 4.
Regarding `OC(CN(Cc1ccccc1Br)C1CC1)(Cn1cncn1)c1ccc(F)cc1F` (configuration not stated), the MIC80 in the test on Trichophyton rubrum [1], against Aspergillus fumigatus [2], against Microsporum canis [3], against Fonsecaea compacta [5] and in the test on Candida tropicalis [11] was 0.125 µg/mL (≈ 0.27 µM) in each case. The Ratio in the test on Cryptococcus neoformans [4], with Aspergillus fumigatus [6], in the test on Microsporum canis [7], in the test with Trichophyton rubrum [8], in the test with Fonsecaea compacta [9] and in the test on Candida albicans [10] was 4 throughout. Besides, in the test with Candida tropicalis [12], the Ratio was found to be 4.
On to `CCCCOc1ccccc1N1CCN(CCc2nnn(CC(O)(Cn3cncn3)c3ccc(F)cc3F)n2)CC1` (configuration not stated), for which the MIC in the test on Candida albicans [22] (read-out: MIC), against Pichia kudriavzevii [23], in the test with Cryptococcus neoformans [24] (read-out: MIC), in the test on Candida tropicalis [25] (read-out: MIC) and with Aspergillus fumigatus [28] was 1 to 8 µg/mL (≈ 1.76 to 14.1 µM) in each case.
Turning to `OC(Cn1cncn1)(Cn1cnc(SCc2ccc(Cl)cc2)n1)c1ccc(F)cc1F` (configuration not stated), the minimal inhibitory concentration (MIC) in the test on Candida parapsilosis [26] and in the test with Candida albicans [27] was 0.063 to 1 µg/mL (≈ 0.136 to 2.16 µM) each time.
For `OC(CN(Cc1ccc(F)cc1)C1CC1)(Cn1cncn1)c1ccc(F)cc1F` (configuration not stated), the MIC80 in the test with Trichophyton rubrum [1], in the test on Aspergillus fumigatus [2], against Microsporum canis [3], in the test on Fonsecaea compacta [5] and in the test with Candida tropicalis [11] was 0.125 µg/mL (≈ 0.311 µM) each time. Besides, the Ratio with Cryptococcus neoformans [4], with Aspergillus fumigatus [6], in the test on Microsporum canis [7], in the test on Trichophyton rubrum [8], with Fonsecaea compacta [9] and in the test on Candida albicans [10] was 4 each time. Besides, the Ratio in the test on Candida tropicalis [12] amounted to 4.
